Point of comparison: `NC1=NCC(COc2ccccc2Cl)O1` (configuration not stated), logP 1.77. Against it:
- NC1=NCC(COc2cccc([N+](=O)[O-])c2)O1 (configuration not stated) — lower, 1.23
- NC1=NCC(COc2ccc(N3CCOCC3)cc2)O1 (configuration not stated) — lower, 0.6
- Cc1ccc(OCC2CN=C(N)O2)cc1 (configuration not stated) — within 0.2 log units, 1.79
- NC1=NCC(COc2ccccc2)O1 (configuration not stated) — lower, 1.27
- COc1ccc(OCC2CN=C(N)O2)cc1 (configuration not stated) — lower, 1.26
- CCOc1ccccc1OCC1CN=C(N)O1 (configuration not stated) — lower, 1.24
- Cc1ccccc1OCC1CN=C(N)O1 (configuration not stated) — within 0.2 log units, 1.69
- COc1ccccc1OCC1CN=C(N)O1 (configuration not stated) — lower, 0.85
- NC1=NCC(COc2ccc([N+](=O)[O-])cc2)O1 (configuration not stated) — lower, 1.17
- CN(C)c1cccc(OCC2CN=C(N)O2)c1 (configuration not stated) — lower, 1.4
- NC1=NCC(COc2ccc(Cl)cc2)O1 (configuration not stated) — higher, 2
